biological target: T1, Recombinant Human ENPP-2/Autotaxin (Homo sapiens, UniProt Q13822); experiment: LysoPLD activity measurement (autotaxin enzyme inhibition, choline release, TOOS reagent); assay type: biochemical; conditions: LysoPLD inhibitory activity; substrate 14:0 LysoPC; absorbance at 555 nm
T1 construct: purchased R&D systems 5255-EN
Protocol: Such a measurement method is a method of measuring the amount of choline, which is a reaction product in an autotaxin enzyme reaction, using a TOOS reagent. Depending on the activity of the autotaxin inhibitor, the amount of choline produced as a reaction product varies, which affects the final absorbance.
After 30 min, 14:0 LysoPC of the substrate diluted to a concentration of 300 μM with the enzyme reaction buffer solution was dispensed into each well by 50 μL and allowed to stand at 37° C. for 90 minutes. At this time, negative control wells were dispensed with 1% DMSO, substrate, and autotaxin instead of the compound, and positive control wells were dispensed with 1% DMSO and substrate.

For `O=C(O)c1cccc(C2(n3c(=O)n(-c4ccc(C(=O)N5CCCCC5)cc4)c4cc(Cl)ccc43)CC2)c1F` [Example 68, 3-(1-(5-chloro-2-oxo-3-(4-(piperidine-1-carbonyl)phenyl)-2,3-dihydro-1H-benzo[d]imidazol-1-yl)cyclopropyl)-2-fluorobenzoic acid], which IC50 is on record?
Its IC50 is less than 10 nM.

`CN(C)c1ccc(-n2c(=O)n(C3(c4cccc(C(=O)O)c4)CC3)c3ccc(Cl)cc32)cc1` [Example 69, 3-(1-(5-chloro-3-(4-(dimethylamino)phenyl)-2-oxo-2,3-dihydro-1H-benzo[d]imidazol-1-yl)cyclopropyl)benzoic acid] was tested. Which IC50 did it give?
The IC50 was less than 10 nM.

`CN(C)c1ccc(-n2c(=O)n(C3(c4cccc(C(=O)O)c4F)CC3)c3ccc(Cl)cc32)cc1` [Example 70, 3-(1-(5-chloro-3-(4-(dimethylamino)phenyl)-2-oxo-2,3-dihydro-JH-benzo[d]imidazol-1-yl)cyclopropyl)-2-fluorobenzoic acid] was tested. Which IC50 did it give?
Its IC50 is less than 10 nM.

With `CN(C)C(=O)c1ccc(-n2c(=O)n(C3(c4cccc(C(=O)O)c4)CC3)c3ccc(Cl)cc32)cc1` [Example 71, 3-(1-(5-chloro-3-(4-(dimethylcarbamoyl)phenyl)-2-oxo-2,3-dihydro-1H-benzo[d]imidazol-1-yl)cyclopropyl)benzoic acid] as the molecule, how does the IC50 read?
The IC50 was less than 10 nM.

For `CN(C)C(=O)c1ccc(-n2c(=O)n(C3(c4cccc(C(=O)O)c4F)CC3)c3ccc(Cl)cc32)cc1` [Example 72, 3-(1-(5-chloro-3-(4-(dimethylcarbamoyl)phenyl)-2-oxo-2,3-dihydro-1H-benzo[d]imidazol-1-yl)cyclopropyl)-2-fluorobenzoic acid], which IC50 is on record?
Its IC50 is less than 10 nM.

For `CCOc1ccc(-n2c(=O)n(Cc3cccc(C(=O)O)c3)c3ccc(Cl)cc32)cn1` [Example 75, 3-((5-chloro-3-(6-ethoxypyridin-3-yl)-2-oxo-2,3-dihydro-1H-benzo[d]imidazol-1-yl)methyl)benzoic acid], which IC50 is on record?
The IC50 was 100 to 1000 nM.

With `CCCOc1ccc(-n2c(=O)n(Cc3cccc(C(=O)O)c3)c3ccc(Cl)cc32)cn1` [Example 76, 3-((5-chloro-2-oxo-3-(6-propoxypyridin-3-yl)-2,3-dihydro-1H-benzo[d]imidazol-1-yl)methyl)benzoic acid] as the molecule, how does the IC50 read?
Its IC50 is 100 to 1000 nM.

For `O=C(O)c1cccc(Cn2c(=O)n(-c3ccc(N4CC(O)C4)nc3)c3cc(Cl)ccc32)c1` [Example 77, 3-((5-chloro-3-(6-(3-hydroxyazetidin-1-yl)pyridin-3-yl)-2-oxo-2,3-dihydro-1H-benzo[d]imidazol-1-yl)methyl)benzoic acid], which IC50 is on record?
The IC50 was 100 to 1000 nM.

`O=C(O)c1cccc(Cn2c(=O)n(-c3ccc(N4CCOCC4)nc3)c3cc(Cl)ccc32)c1` [Example 78, 3-((5-chloro-3-(6-morpholinopyridin-3-yl)-2-oxo-2,3-dihydro-1H-benzo[d]imidazol-1-yl)methyl)benzoic acid] was tested. Which IC50 did it give?
The IC50 was 10 to 100 nM.

Which IC50 does the source give for `CN(C)c1ccc(-n2c(=O)n(Cc3cccc(C(=O)O)c3)c3ccc(Cl)cc32)cn1` [Example 79, 3-((5-chloro-3-(6-(dimethylamino)pyridin-3-yl)-2-oxo-2,3-dihydro-1H-benzo[d]imidazol-1-yl)methyl)benzoic acid] here?
Its IC50 is 10 to 100 nM.

With `O=C(O)c1cccc(Cn2c(=O)n(-c3ccc(N4CCC(F)(F)C4)nc3)c3cc(Cl)ccc32)c1` [Example 80, 3-((5-chloro-3-(6-(3,3-difluoropyrrolidin-1-yl)pyridin-3-yl)-2-oxo-2,3-dihydro-1H-benzo[d]imidazol-1-yl)methyl)benzoic acid] as the molecule, how does the IC50 read?
The IC50 was 100 to 1000 nM.

With `CN1CCN(c2ccc(-n3c(=O)n(Cc4cccc(C(=O)O)c4)c4ccc(Cl)cc43)cn2)CC1` [Example 81, 3-((5-chloro-3-(6-(4-methylpiperazin-1-yl)pyridin-3-yl)-2-oxo-2,3-dihydro-1H-benzo[d]imidazol-1-yl)methyl)benzoic acid] as the molecule, how does the IC50 read?
Its IC50 is 100 to 1000 nM.

`O=C(O)c1cccc(Cn2c(=O)n(-c3ccc(N4CCC(F)(F)CC4)nc3)c3cc(Cl)ccc32)c1` [Example 82, 3-((5-chloro-3-(6-(4,4-difluoropiperidin-1-yl)pyridin-3-yl)-2-oxo-2,3-dihydro-1H-benzo[d]imidazol-1-yl)methyl)benzoic acid] was tested. Which IC50 did it give?
Its IC50 is 10 to 100 nM.

— patent US20260265265A1, “NOVEL BENZIMIDAZOLONE DERIVATIVE COMPOUND AS AUTOTAXIN INHIBITOR” (LG CHEM, LTD., priority 2023, published 2026)
